Patent US20220313697A1, “NEK6 Inhibition to Treat ALS and FTD” (VIB VZW, priority 2021, published 2022)
Ends that are not written are not given here.

Key:
[1] = test system: hiPSC-derived cortical neurons treated with PR20; assay: Axonal transport analysis (mitochondrial transport, MitoTracker-Red) in PR20-treated neurons; format: cell-based, human; settings: for axonal transport defects observed upon PR-treatment: 200 nm I-3 or 300 nm I-18, added 3 days before and together with PR20; for number of moving mitochondria / ratio of moving mitochondria to total amount of mitochondria: 200 nm I-3 or 300 nm I-18, vs PR-treatment alone
Description: Axonal transport defects are an early event in the pathogenesis of ALS (Guo et al 2019 Semin Cell Dev Biol 99:133-150). To assess whether axonal transport defects also occur in cortical neurons from healthy donor hiPSC-cortical neurons treated with PR20 and from C9orf72 patient-derived cortical neurons, mitochondrial transport studies were performed.
To test whether chemical inhibition of NEK6 could be used as a treatment of DPR toxicity as well, the recently described NEK6 inhibitor ZINC05007751 was tested. iCas9-hiPSC derived cortical neurons (cultured for 70-80 days) were treated with 1.75 μM to 14 μM of the inhibitor at dayl and at day 3. The cells were subjected to a PR20 treatment (1.5 μM) at day 3 together with the compound. Axonal transport measurements were performed at day 4.
The same experiments are performed with the NEK6 inhibitors ZINC05007751 and with the NEK6 inhibitors described in WO2019126696A1.
DIV79-DIV84 iPSC-derived cortical neurons were loaded with MitoTracker-Red (50 nM, Invitrogen), washed and left to equilibrate (20 min) in NMM, before transferring them to a HEPES buffered salt solution (pH 7.4, 150 mM NaCl, 5 mM KCl, 1 mM MgCl2, 2 mM CaCl2, 10 mM glucose, 10 mM HEPES). Measurements were performed on an inverted Zeiss Axiovert 200M microscope (Carl Zeiss) with a 40× water immersion lens. Neurons were selected under differential interference optics (DIC) based on typical morphology consisting of a soma and long-extended neurites. MitoTracker-RED was excited at 580 nm, using a TILL Poly V light source (TILL Photonics) and image sequences were recorded (200 images at 1 Hz) onto a cooled CCD camera (PCO Sensicam-QE) using TillVisION (TILL Photonics) software. A heated gravityfed perfusion system was used to keep cells at 36±0.5° C. during the recordings. All image analysis was performed in Igor Pro (Wavemetrics) using custom written routines based on a previously described analysis algorithm (Vanden Berghe 2004 Am. J. Physiol. Gastrointest. Liver Physiol. 286, G671-G682). In brief, kymographs or spatio-temporal maps were constructed for each of the neuronal processes. In these maps, stationary mitochondria appear as vertical lines and moving mitochondria generate tilted lines. Proportions of moving and stationary mitochondria were extracted from the maps by marking and analyzing the properties of each of the mitochondrial trajectories.

[2] = test system: iCas9-iPSC DIV80 neuronal progeny; format: cell-based; settings: human
Description: Next, the iCas9-iPSC derived DIV79 neurons were treated with PR20 peptides to mimic DPR toxicity (Cheng et al 2019 Neuron 72:1-14; Kramer et al 2018 Nat Genet 50:603-612).
To validate results from the screen, iCas9-NPCs were individually transduced with sgRNAs directed against the top 3 candidate genes, CRKL, SNRK and NEK6, that enhanced survival in the interference screen. A 50-60% reduction in protein levels of CRKL, SNRK and NEK6 was observed after doxycycline treatment (FIG. 5). […] A more pronounced effect could be observed using sgRNAs against NEK6 and SNRK.
Resazurin (R7017, Sigma) was added to the cells in neuron maintenance medium (NMM) at a concentration of 1 μg/ml. Cells were incubated for 1 h in 37° C. with 5% CO2. […] was evaluated using 540 nm excitation and 590 nm emission settings.

poly(PR) zebrafish model = poly(PR) zebrafish model of motor axonopathy; format: in vivo
Description: Therefore, a morpholino-mediated NEK6 knockdown was performed in a poly(PR) zebrafish model as described in Swinnen et al (2018 Acta Neuropathol doi:10.1007/s00401-017-1796-5). In this model, micro-injection of poly(PR) encoding mRNA results in a motor axonopathy in zebrafish embryos, characterised by reduced axonal lengths and aberrant axonal branching (Swinnen et al 2018 Acta Neuropathol doi:10.1007/s00401-017-1796-5).
Zebrafish work was performed as previously described in Swinnen et al (2018 Acta Neuropathol 135, 427-443). Zebrafish oocytes were injected at one-cell stage with the indicated amounts of the morpholinos. The splice-blocking morpholino against Danio rerio nek6 (transcript ENSDART00000132599.2; morpholino sequence 5′-[…]-3′) and the standard control oligo (morpholino sequence 5′-[…]-3′) were designed and generated by Gene Tools (Philomath, USA). Injected oocytes were incubated at 28° C. After 24 hpf, the embryos were dechorionated by using a forceps. Only morphologically normal embryos were selected for downstream experiments. At 30 hpf, the selected fish were deyolked and subsequently fixed overnight at 4° C. in 4% formaldehyde in lx PBS. Fish were permeabilized with acetone for 1 h at −20° C., blocked with 1% BSA/1% DMSO/PBS for 1 h at room temperature and immune-stained with mouse anti-SV2 primary antibody followed by secondary antibody. For phenotyping, 15 consecutive embryos per condition were analyzed with imaging (Leica DM 3000 LED microscope; DMK 33UX250 USB3.0 monochrome industrial camera, The Imaging Source, Bremen, Germany) and the Lucia software (version 4.60, Laboratory Imaging, Prague, Czech Republic) by a blinded observer. For the axonal length, a standardized method was used; five predefined and consecutive motor axons (i.e. the 8th up to the 12th axon on one side) were measured in all 15 embryos. Data for axonal length were normalized to the control condition. For the abnormal branching, a predefined set of 20 consecutive motor axons (i.e. the 8th up to the 17th axon on both sides) in the same 15 embryos were analyzed visually. […]

[3] = co-injection of poly(PR) mRNA with 0.5 mM morpholino, 30 hpf

CC1=C(C#N)C(O)=NC(=O)/C1=C\c1ccc(-c2ccccc2)o1 [ZINC05007751]
axonal transport defects induced by PR20 ([1]; 1.75 μM to 14 μM inhibitor at day 1 and day 3, PR20 1.5 μM at day 3, measured at day 4): overruled the axonal transport defects

PRPRPRPRPRPRPRPRPRPRPRPRPRPRPRPRPRPRPRPR [PR20]
neuronal progeny died (dose-response, cell viability) [2]: 70-80% | axonal transport ([1]; 1.5 μM PR20, normal donor iPSC-DIV79 cortical neurons): significantly decreased

COc1cc(N2CCN(C)CC2)ccc1Nc1ncc2c(n1)n1c(cc3ccccc31)c(=O)n2C [Compound I-3]
axonal transport defects observed upon PR-treatment [1]: statistically significantly rescues | number of moving mitochondria [1]: statistically significantly improved | ratio of moving mitochondria to total amount of mitochondria [1]: statistically significantly improved

CCOc1cc(N2CCC(O)CC2)ccc1Nc1ncc2c(n1)n1c(cc3ccccc31)c(=O)n2C [Compound I-18]
axonal transport defects observed upon PR-treatment [1]: statistically significantly rescues | number of moving mitochondria [1]: statistically significantly improved | ratio of moving mitochondria to total amount of mitochondria [1]: statistically significantly improved | number of total mitochondria ([1]; 300 nm I-18, vs PR-treatment alone): statistically significantly increased

5′-ATGTTAGAAAGTGTACCTCGATGCA-3′ (all phosphorodiamidate morpholino (PMO)) [Nek6 morpholino]
poly(PR)-induced axonal phenotype (poly(PR) zebrafish model; co-injection of poly(PR) mRNA with 0.5 mM morpholino in oocytes): significantly prevented | aberrant axonal branching (poly(PR) zebrafish model; [3]): less aberrantly branched axons | axonal length (poly(PR) zebrafish model; [3]): partial normalization
